The values below come from publication PMC9571433, “Design, Synthesis, Anti-Varicella-Zoster and Antimicrobial Activity of (Isoxazolidin-3-yl)Phosphonate Conjugates of N1-Functionalised Quinazoline-2,4-Diones” (Molecules, 2022).

≈ marks a conversion by molar mass, not a printed value. Read-outs that look alike come from different tables or passages of the source.

What is called MIC is the least concentration at which growth counts as inhibited. For orientation: EC50 means the concentration at which the effect is half-maximal.

One series deals with S. aureus ATCC 2593. Description: Broth microdilution MIC/MBC. Particulars: Staphylococcus aureus, ATCC2593, 24 h, read-out: MIC = MBC. (In general: In broth dilution the organism is exposed to a series of concentrations in liquid medium.)
The test system of a further series is E. coli ATCC 25922. Nature of the series: Broth microdilution MIC/MBC. Particulars: Escherichia coli.
The next series concerns P. aeruginosa ATCC 27853. Description: Broth microdilution MIC/MBC. Particulars: Pseudomonas aeruginosa, ATCC27853, 24 h, read-out: MIC = MBC.
The test system of the next series is B. cereus PCM 1948. Description: Broth microdilution MIC/MBC. The settings on record: Bacillus cereus.
The next series deals with E. faecalis ATCC 29212. Nature of the series: Broth microdilution MIC/MBC. The settings on record: Enterococcus faecalis, ATCC29212, 24 h.
The next series has as its system TK– VZV 07-1 strain. Description: microbe, parasite or virus in culture. The format is cell-based, varicella-zoster virus. The settings on record: Human alphaherpesvirus 3, HEL, read-out: Antiviral Activity EC50 TK– VZV Strain (07-1).
In another series the test system is TK+ VZV OKA strain. Nature of the series: microbe, parasite or virus in culture. The format is cell-based, varicella-zoster virus. The settings on record: Human alphaherpesvirus 3, HEL, read-out: Antiviral Activity EC50 TK+ VZV Strain (OKA).
Series [1] relates to human embryonic lung (HEL) cells. The settings on record: minimum cytotoxic concentration causing microscopically detectable alteration of cell morphology.
In the next series the test system is C. albicans ATCC 10241. Nature of the series: Broth microdilution MIC/MBC (antifungal). Particulars: Candida albicans.
The subject of series [2] is A. brasiliensis ATCC 16404. Nature of the series: Broth microdilution MIC/MBC (antifungal). Particulars: Aspergillus brasiliensis.
For the next series, the system named is feline herpes viruses. Also on record: method as in PMID 24906510, PMID 28763115, PMID 24219992. Particulars: read-out: EC50 toward feline herpes viruses; cited from earlier work.
Setting [3] is: ATCC25922, 24 h, read-out: MIC = MBC.
Where [4] appears, read: PCM1948, 24 h, read-out: MIC = MBC.
Where [5] appears, read: ATCC16404, 72 h, read-out: MIC = MBC.

On to `NCC[C@H](O)C(=O)N[C@@H]1C[C@H](N)[C@@H](O[C@H]2O[C@H](CN)[C@@H](O)[C@H](O)[C@H]2O)[C@H](O)[C@H]1O[C@H]1O[C@H](CO)[C@@H](O)[C@H](N)[C@H]1O` [Amikacin, reference compound], for which the MIC came to 1 µg/mL (≈ 0.00171 mM) with S. aureus ATCC 2593; 0.625 µg/mL (≈ 0.00107 mM) in the series with E. coli ATCC 25922 (setting [3]); 20 µg/mL (≈ 0.0342 mM) with P. aeruginosa ATCC 27853; 20 µg/mL (≈ 0.0342 mM) with B. cereus PCM 1948 (PCM1948); 20 µg/mL (≈ 0.0342 mM) in the series with B. cereus PCM 1948 (setting [4]); 0.625 µg/mL (≈ 0.00107 mM) with E. faecalis ATCC 29212.
For the compound `O=c1[nH]c(=O)n([C@H]2C[C@H](O)[C@@H](CO)O2)cc1/C=C/Br` [Brivudin, reference compound], the EC50 in the series with TK– VZV 07-1 strain is 12 µM; with TK+ VZV OKA strain, 0.026 µM. Further, in series [1], the “Cytotoxicity Cell Morphology MCC” value is greater than 300 μM.
As for `CCOP(=O)(OCC)C1CC(Cn2c(=O)c3ccccc3n(Cc3ccccc3F)c2=O)ON1Cc1ccccc1` (stereo not drawn) [Diethyl trans-(2-benzyl-5-((1-(2-fluorobenzyl)-2,4-dioxo-1,2-dihydroquinazolin-3(2H)-yl)methyl)isoxazolidin-3-yl)phosphonate], the EC50 with TK– VZV 07-1 strain came to 27.6 µM; in the series on TK+ VZV OKA strain, 12.6 µM. For the same compound, the MIC is 5000 µg/mL (≈ 8.6 mM) in the series on S. aureus ATCC 2593; 2500 µg/mL (≈ 4.3 mM) in the series on E. coli ATCC 25922 (setting [3]); 2500 µg/mL (≈ 4.3 mM) with P. aeruginosa ATCC 27853; 1250 µg/mL (≈ 2.15 mM) in the series on B. cereus PCM 1948 (setting [4]); 2500 µg/mL (≈ 4.3 mM) in the series on C. albicans ATCC 10241 (ATCC10241, read-out: MIC = MBC); greater than 5000 µg/mL against E. faecalis ATCC 29212. For the same compound, the MIC in series [2] (setting [5]) was determined as 5000 µg/mL (≈ 8.6 mM). Besides, the MBC against E. faecalis ATCC 29212 is greater than 5000 µg/mL. The “Cytotoxicity Cell Morphology MCC” value in [1] is listed as 100 μM.
Turning to `CCOP(=O)(OCC)C1CC(Cn2c(=O)c3ccccc3n(Cc3cccc(F)c3)c2=O)ON1Cc1ccccc1` (stereo not drawn) [Diethyl trans-(2-benzyl-5-((1-(3-fluorobenzyl)-2,4-dioxo-1,2-dihydroquinazolin-3(2H)-yl)methyl)isoxazolidin-3-yl)phosphonate], the results for the EC50 with TK– VZV 07-1 strain and in the series with TK+ VZV OKA strain were 14.5 µM and 20 µM, respectively. For the same compound, the MIC in the series with S. aureus ATCC 2593 came out at 5000 µg/mL (≈ 8.6 mM); in the series on E. coli ATCC 25922 (ATCC25922), 1250 µg/mL (≈ 2.15 mM); with E. coli ATCC 25922 (setting [3]), 1250 µg/mL (≈ 2.15 mM); with P. aeruginosa ATCC 27853, 2500 µg/mL (≈ 4.3 mM); in the series with B. cereus PCM 1948 (setting [4]), 2500 µg/mL (≈ 4.3 mM); with C. albicans ATCC 10241 (ATCC10241, read-out: MIC = MBC), 2500 µg/mL (≈ 4.3 mM). For the same compound, the MIC against E. faecalis ATCC 29212 is greater than 5000 µg/mL; in series [2] (setting [5]) it was 5000 µg/mL (≈ 8.6 mM). In addition, the MBC in the series on E. faecalis ATCC 29212 was greater than 5000 µg/mL. In series [1], the “Cytotoxicity Cell Morphology MCC” value came out at 20 μM.
In the case of `CCOP(=O)(OCC)C1CC(Cn2c(=O)c3ccccc3n(Cc3ccc(F)cc3)c2=O)ON1Cc1ccccc1` (stereo not drawn) [Diethyl trans-(2-benzyl-5-((1-(4-fluorobenzyl)-2,4-dioxo-1,2-dihydroquinazolin-3(2H)-yl)methyl)isoxazolidin-3-yl)phosphonate], the EC50 in the series with TK– VZV 07-1 strain and with TK+ VZV OKA strain was 20 µM in each case. The MIC in the series on S. aureus ATCC 2593 stood at 5000 µg/mL (≈ 8.6 mM); with E. coli ATCC 25922 (ATCC25922) it was 1250 µg/mL (≈ 2.15 mM); in the series with E. coli ATCC 25922 (setting [3]) it was 1250 µg/mL (≈ 2.15 mM); in the series on P. aeruginosa ATCC 27853, 2500 µg/mL (≈ 4.3 mM); with B. cereus PCM 1948 (setting [4]), 1250 µg/mL (≈ 2.15 mM); in the series with C. albicans ATCC 10241 (ATCC10241, read-out: MIC = MBC) it was 2500 µg/mL (≈ 4.3 mM). The MIC in the series with E. faecalis ATCC 29212 is greater than 5000 µg/mL; in series [2] (setting [5]) it was 5000 µg/mL (≈ 8.6 mM). For the same compound, in the series with E. faecalis ATCC 29212, the MBC is greater than 5000 µg/mL. Moreover, the “Cytotoxicity Cell Morphology MCC” value in series [1] is listed as 100 μM.
In the case of `OC(Cn1cncn1)(Cn1cncn1)c1ccc(F)cc1F` [Fluconazole, reference compound], in the series on C. albicans ATCC 10241 (ATCC10241), the MBC is greater than 5 µg/mL and the minimal inhibitory concentration (MIC) came out at 5 µg/mL (≈ 0.0163 mM). Also, in [2] (ATCC16404), the MBC was greater than 5 µg/mL and 5 µg/mL (≈ 0.0163 mM) was the least that counted as inhibitory (MIC).
In the case of `CCOP(=O)(OCC)C1CC(Cn2c(=O)c3ccccc3n(Cc3ccccc3)c2=O)ON1C` (stereo not drawn) [cis-20a/trans-20a (10:90), Diethyl trans-5-((1-benzyl-2,4-dioxo-1,4-dihydroquinazolin-3(2H)-yl)methyl)-2-methylisoxazolidin-3-yl)phosphonate], the EC50 worked out at 100 µM in the series with TK– VZV 07-1 strain and 31.7 µM in the series with TK+ VZV OKA strain. In addition, the minimal inhibitory concentration (MIC) in the series with S. aureus ATCC 2593 is 2500 µg/mL (≈ 5.13 mM); in the series with E. coli ATCC 25922 (ATCC25922) it was 1250 µg/mL (≈ 2.56 mM); with E. coli ATCC 25922 (setting [3]), 1250 µg/mL (≈ 2.56 mM); with P. aeruginosa ATCC 27853 it was 2500 µg/mL (≈ 5.13 mM); with B. cereus PCM 1948 (setting [4]), 1250 µg/mL (≈ 2.56 mM); in the series on C. albicans ATCC 10241 (ATCC10241, read-out: MIC = MBC) it was 2500 µg/mL (≈ 5.13 mM). The MIC with E. faecalis ATCC 29212 was greater than 5000 µg/mL; in series [2] (setting [5]), 5000 µg/mL (≈ 10.3 mM). This compound showed an MBC in the series on E. faecalis ATCC 29212 greater than 5000 µg/mL. Moreover, the “Cytotoxicity Cell Morphology MCC” value in [1] is on record as greater than 100 μM.
Take `CCOP(=O)(CCCn1cc(Cn2c(=O)n(C(=O)c3ccccc3)c(=O)c3ccccc32)nn1)OCC` [compound 7]: in the series with feline herpes viruses, the EC50 was 4 µM.
